{"source": "patent US10167262B2", "about": "“Herbicidal substituted 3-arylpyrazoles” (FMC CORPORATION, priority 2014, dated 2019)", "format_in_all_cases": "in vivo", "key": {"[1]": {"system": "barnyardgrass (Echinochloa crus-galli)", "experiment": "Test B flooded paddy test, plant response rating 0-100", "conditions": "Flood, 250 g ai/ha; scale 0 to 100 (0 no effect, 100 complete control); 13 to 15 days", "from_the_text": "(§1) At time of treatment, test pots were flooded to 3 cm above the soil surface, treated by application of test compounds directly to the paddy water, and then maintained at that water depth for the duration of the test. Treated plants and controls were maintained in a greenhouse for 13 to 15 days, after which time all species were compared to controls and visually evaluated. […] A dash (-) response means no test result."}, "[2]": {"system": "ducksalad (Heteranthera limosa)", "experiment": "Test B flooded paddy test, plant response rating 0-100", "conditions": "Flood, 250 g ai/ha; scale 0 to 100 (0 no effect, 100 complete control); 13 to 15 days", "from_the_text": "as §1"}, "[3]": {"system": "sedge, umbrella (small-flower umbrella sedge, Cyperus difformis)", "experiment": "Test B flooded paddy test, plant response rating 0-100", "conditions": "Flood, 250 g ai/ha; scale 0 to 100 (0 no effect, 100 complete control); 13 to 15 days", "from_the_text": "as §1"}, "rice (Oryza sativa)": {"system": "rice (Oryza sativa)", "experiment": "Test B flooded paddy test, plant response rating 0-100", "conditions": "Flood, 250 g ai/ha; scale 0 to 100 (0 no effect, 100 complete control); 13 to 15 days", "from_the_text": "as §1"}, "[4]": {"system": "pigweed (Amaranthus retroflexus)", "experiment": "Test A pre-/postemergence greenhouse herbicide test, visual injury rating 0-100", "procedure,_shortened": "(§2)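 Each species was treated both before emergence, via soil spray onto a loam–sand blend, and after emergence at the one- to two-leaf stage. Plants stayed in the greenhouse around 10 days before visual injury assessment.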"}, "corn (Zea mays)": {"system": "corn (Zea mays)", "experiment": "Test A pre-/postemergence greenhouse herbicide test, visual injury rating 0-100", "procedure,_shortened": "as §2"}, "[5]": {"system": "velvetleaf (Abutilon theophrasti)", "experiment": "Test A pre-/postemergence greenhouse herbicide test, visual injury rating 0-100", "procedure,_shortened": "as §2"}, "[6]": {"system": "barnyardgrass (Echinochloa crus-galli)", "experiment": "Test A pre-/postemergence greenhouse herbicide test, visual injury rating 0-100", "procedure,_shortened": "as §2"}, "[7]": {"system": "wheat (Triticum aestivum)", "experiment": "Test A pre-/postemergence greenhouse herbicide test, visual injury rating 0-100", "procedure,_shortened": "as §2"}, "[8]": {"system": "morningglory (Ipomoea spp.)", "experiment": "Test A pre-/postemergence greenhouse herbicide test, visual injury rating 0-100", "procedure,_shortened": "as §2"}, "[9]": {"system": "giant foxtail (Setaria faberii)", "experiment": "Test A pre-/postemergence greenhouse herbicide test, visual injury rating 0-100", "procedure,_shortened": "as §2"}, "[10]": {"system": "large (Lg) crabgrass (Digitaria sanguinalis)", "experiment": "Test A pre-/postemergence greenhouse herbicide test, visual injury rating 0-100", "procedure,_shortened": "as §2"}}, "data": [{"molecule": "Clc1cc(Cl)cc(-c2n[nH]cc2C(=NN2CCOCC2)c2ccccc2)c1", "note": "[Compound 55]", "values": [{"measurement": "Plant response rating, Barnyardgrass", "setting": "[1]", "value": 0}, {"measurement": "Plant response rating, Ducksalad", "setting": "[2]", "value": 0}, {"measurement": "Plant response rating, Sedge, Umbrella", "setting": "[3]", "value": 0}, {"measurement": "Plant response rating, Rice", "setting": "rice (Oryza sativa)", "value": 0}, {"measurement": "Plant response rating (0 to 100 scale), Pigweed", "setting": "[4]; Postemergence, 1000 g ai/ha", "value": 100}, {"measurement": "Plant response rating (0 to 100 scale), Pigweed", "setting": "[4]; Preemergence, 1000 g ai/ha", "value": 90}, {"measurement": "Plant response rating (0 to 100 scale), Corn", "setting": "corn (Zea mays); Postemergence, 1000 g ai/ha", "value": 0}, {"measurement": "Plant response rating (0 to 100 scale), Corn", "setting": "corn (Zea mays); Preemergence, 1000 g ai/ha", "value": 0}, {"measurement": "Plant response rating (0 to 100 scale), Velvetleaf", "setting": "[5]; Postemergence, 1000 g ai/ha", "value": 100}, {"measurement": "Plant response rating (0 to 100 scale), Velvetleaf", "setting": "[5]; Preemergence, 1000 g ai/ha", "value": 80}, {"measurement": "Plant response rating (0 to 100 scale), Barnyardgrass", "setting": "[6]; Postemergence, 1000 g ai/ha", "value": 0}, {"measurement": "Plant response rating (0 to 100 scale), Barnyardgrass", "setting": "[6]; Preemergence, 1000 g ai/ha", "value": 0}, {"measurement": "Plant response rating (0 to 100 scale), Wheat", "setting": "[7]; Postemergence, 1000 g ai/ha", "value": 0}, {"measurement": "Plant response rating (0 to 100 scale), Wheat", "setting": "[7]; Preemergence, 1000 g ai/ha", "value": 0}, {"measurement": "Plant response rating (0 to 100 scale), Morningglory", "setting": "[8]; Postemergence, 1000 g ai/ha", "value": 0}, {"measurement": "Plant response rating (0 to 100 scale), Morningglory", "setting": "[8]; Preemergence, 1000 g ai/ha", "value": 0}, {"measurement": "Plant response rating (0 to 100 scale), Foxtail, Giant", "setting": "[9]; Postemergence, 1000 g ai/ha", "value": 0}, {"measurement": "Plant response rating (0 to 100 scale), Foxtail, Giant", "setting": "[9]; Preemergence, 1000 g ai/ha", "value": 0}, {"measurement": "Plant response rating (0 to 100 scale), Crabgrass, Large", "setting": "[10]; Postemergence, 1000 g ai/ha", "value": 0}, {"measurement": "Plant response rating (0 to 100 scale), Crabgrass, Large", "setting": "[10]; Preemergence, 1000 g ai/ha", "value": 0}]}, {"molecule": "ON=C(c1cccnc1)c1c[nH]nc1-c1cc(Cl)cc(Cl)c1", "note": "[Compound 5]", "values": [{"measurement": "Plant response rating, Barnyardgrass", "setting": "[1]", "value": 0}, {"measurement": "Plant response rating, Ducksalad", "setting": "[2]", "value": 0}, {"measurement": "Plant response rating, Sedge, Umbrella", "setting": "[3]", "value": 0}, {"measurement": "Plant response rating, Rice", "setting": "rice (Oryza sativa)", "value": 0}, {"measurement": "Plant response rating (0 to 100 scale), Pigweed", "setting": "[4]; Postemergence, 125 g ai/ha", "value": 0}, {"measurement": "Plant response rating (0 to 100 scale), Pigweed", "setting": "[4]; Postemergence, 500 g ai/ha", "value": 0}, {"measurement": "Pigweed plant response rating (0 = no effect, 100 = complete control)", "setting": "[4]; Preemergence, 125 g ai/ha", "value": 0}, {"measurement": "Plant response rating (0 to 100 scale), Pigweed", "setting": "[4]; Preemergence, 500 g ai/ha", "value": 20}, {"measurement": "Corn plant response rating (0 = no effect, 100 = complete control)", "setting": "corn (Zea mays); Preemergence, 125 g ai/ha", "value": 0}, {"measurement": "Plant response rating (0 to 100 scale), Corn", "setting": "corn (Zea mays); Preemergence, 500 g ai/ha", "value": 0}, {"measurement": "Plant response rating (0 to 100 scale), Velvetleaf", "setting": "[5]; Postemergence, 125 g ai/ha", "value": 0}, {"measurement": "Plant response rating (0 to 100 scale), Velvetleaf", "setting": "[5]; Postemergence, 500 g ai/ha", "value": 0}, {"measurement": "Velvetleaf plant response rating (0 = no effect, 100 = complete control)", "setting": "[5]; Preemergence, 125 g ai/ha", "value": 0}, {"measurement": "Plant response rating (0 to 100 scale), Velvetleaf", "setting": "[5]; Preemergence, 500 g ai/ha", "value": 0}, {"measurement": "Plant response rating (0 to 100 scale), Barnyardgrass", "setting": "[6]; Postemergence, 125 g ai/ha", "value": 0}, {"measurement": "Plant response rating (0 to 100 scale), Barnyardgrass", "setting": "[6]; Postemergence, 500 g ai/ha", "value": 0}, {"measurement": "Barnyardgrass plant response rating (0 = no effect, 100 = complete control)", "setting": "[6]; Preemergence, 125 g ai/ha", "value": 0}, {"measurement": "Plant response rating (0 to 100 scale), Barnyardgrass", "setting": "[6]; Preemergence, 500 g ai/ha", "value": 0}, {"measurement": "Plant response rating (0 to 100 scale), Wheat", "setting": "[7]; Postemergence, 125 g ai/ha", "value": 0}, {"measurement": "Plant response rating (0 to 100 scale), Wheat", "setting": "[7]; Postemergence, 500 g ai/ha", "value": 0}, {"measurement": "Wheat plant response rating (0 = no effect, 100 = complete control)", "setting": "[7]; Preemergence, 125 g ai/ha", "value": 0}, {"measurement": "Plant response rating (0 to 100 scale), Wheat", "setting": "[7]; Preemergence, 500 g ai/ha", "value": 0}, {"measurement": "Plant response rating (0 to 100 scale), Morningglory", "setting": "[8]; Postemergence, 125 g ai/ha", "value": 0}, {"measurement": "Plant response rating (0 to 100 scale), Morningglory", "setting": "[8]; Postemergence, 500 g ai/ha", "value": 0}, {"measurement": "Morningglory plant response rating (0 = no effect, 100 = complete control)", "setting": "[8]; Preemergence, 125 g ai/ha", "value": 0}, {"measurement": "Plant response rating (0 to 100 scale), Morningglory", "setting": "[8]; Preemergence, 500 g ai/ha", "value": 0}, {"measurement": "Plant response rating (0 to 100 scale), Foxtail, Giant", "setting": "[9]; Postemergence, 125 g ai/ha", "value": 0}, {"measurement": "Plant response rating (0 to 100 scale), Foxtail, Giant", "setting": "[9]; Postemergence, 500 g ai/ha", "value": 0}, {"measurement": "Foxtail, Giant plant response rating (0 = no effect, 100 = complete control)", "setting": "[9]; Preemergence, 125 g ai/ha", "value": 0}, {"measurement": "Plant response rating (0 to 100 scale), Foxtail, Giant", "setting": "[9]; Preemergence, 500 g ai/ha", "value": 0}, {"measurement": "Plant response rating (0 to 100 scale), Crabgrass, Large", "setting": "[10]; Postemergence, 125 g ai/ha", "value": 0}, {"measurement": "Plant response rating (0 to 100 scale), Crabgrass, Large", "setting": "[10]; Postemergence, 500 g ai/ha", "value": 0}, {"measurement": "Crabgrass, Large plant response rating (0 = no effect, 100 = complete control)", "setting": "[10]; Preemergence, 125 g ai/ha", "value": 0}, {"measurement": "Plant response rating (0 to 100 scale), Crabgrass, Large", "setting": "[10]; Preemergence, 500 g ai/ha", "value": 0}]}, {"molecule": "Clc1cccc(NN=C(c2ccccc2)c2c[nH]nc2-c2cc(Cl)cc(Cl)c2)c1", "note": "[Compound 56]", "values": [{"measurement": "Plant response rating, Barnyardgrass", "setting": "[1]", "value": 0}, {"measurement": "Plant response rating, Ducksalad", "setting": "[2]", "value": 0}, {"measurement": "Plant response rating, Sedge, Umbrella", "setting": "[3]", "value": 0}, {"measurement": "Plant response rating, Rice", "setting": "rice (Oryza sativa)", "value": 0}, {"measurement": "Plant response rating (0 to 100 scale), Pigweed", "setting": "[4]; Postemergence, 1000 g ai/ha", "value": 90}, {"measurement": "Plant response rating (0 to 100 scale), Pigweed", "setting": "[4]; Preemergence, 1000 g ai/ha", "value": 100}, {"measurement": "Plant response rating (0 to 100 scale), Corn", "setting": "corn (Zea mays); Postemergence, 1000 g ai/ha", "value": 0}, {"measurement": "Plant response rating (0 to 100 scale), Corn", "setting": "corn (Zea mays); Preemergence, 1000 g ai/ha", "value": 0}, {"measurement": "Plant response rating (0 to 100 scale), Velvetleaf", "setting": "[5]; Postemergence, 1000 g ai/ha", "value": 90}, {"measurement": "Plant response rating (0 to 100 scale), Velvetleaf", "setting": "[5]; Preemergence, 1000 g ai/ha", "value": 90}, {"measurement": "Plant response rating (0 to 100 scale), Barnyardgrass", "setting": "[6]; Postemergence, 1000 g ai/ha", "value": 0}, {"measurement": "Plant response rating (0 to 100 scale), Barnyardgrass", "setting": "[6]; Preemergence, 1000 g ai/ha", "value": 0}, {"measurement": "Plant response rating (0 to 100 scale), Wheat", "setting": "[7]; Postemergence, 1000 g ai/ha", "value": 0}, {"measurement": "Plant response rating (0 to 100 scale), Wheat", "setting": "[7]; Preemergence, 1000 g ai/ha", "value": 0}, {"measurement": "Plant response rating (0 to 100 scale), Morningglory", "setting": "[8]; Postemergence, 1000 g ai/ha", "value": 0}, {"measurement": "Plant response rating (0 to 100 scale), Morningglory", "setting": "[8]; Preemergence, 1000 g ai/ha", "value": 0}, {"measurement": "Plant response rating (0 to 100 scale), Foxtail, Giant", "setting": "[9]; Postemergence, 1000 g ai/ha", "value": 0}, {"measurement": "Plant response rating (0 to 100 scale), Foxtail, Giant", "setting": "[9]; Preemergence, 1000 g ai/ha", "value": 0}, {"measurement": "Plant response rating (0 to 100 scale), Crabgrass, Large", "setting": "[10]; Postemergence, 1000 g ai/ha", "value": 0}, {"measurement": "Plant response rating (0 to 100 scale), Crabgrass, Large", "setting": "[10]; Preemergence, 1000 g ai/ha", "value": 0}]}]}
